ChEMBL document CHEMBL1201862, “PubChem BioAssay data set” (2004)
Structures can show the parent of a compound that is named as a salt. Calls of active or inactive are those of the source.

How the values were obtained:
[1] = Late-stage results from the probe development effort to identify antagonists of arginine vasopressin receptor 1a (AVPR1a): fluorescence-based cell-based dose response AVPR1a inhibition assay.; assay type: functional
[2] = target: Vasopressin V2 receptor (Homo sapiens, UniProt P30518); assay: Late-stage results from the probe development effort to identify antagonists of arginine vasopressin receptor 1a (AVPR1a): fluorescence-based cell-based dose response AVPR2 inhibition counterscreen assay.; assay type: functional
[3] = target: Vasopressin V1b receptor (Homo sapiens, UniProt P47901); assay: Late-stage results from the probe development effort to identify antagonists of arginine vasopressin receptor 1a (AVPR1a): fluorescence-based cell-based dose response AVPR1b inhibition counterscreen assay.; assay type: functional
[4] = Late-stage results from the probe development effort to identify antagonists of arginine vasopressin receptor 1a (AVPR1a): fluorescence-based cell-based dose response OXTR inhibition counterscreen assay.; assay type: functional
[5] = target: NAD-dependent protein deacylase sirtuin-5, mitochondrial (Homo sapiens, UniProt Q9NXA8); assay: sirtuin-5 deacylation blockers, concentration series – biochemical, fluorescence imaging, cherry-pick, set 5, dose response (AID 720591);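 further: desuccinylation of succinyl peptide AMC substrate read as fluorescence after trypsin release; potency of inhibitors that lower fluorescence and may act on trypsin instead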
NAD-dependent protein deacylase sirtuin-5, mitochondrial, sequence (Q9NXA8 whole entry): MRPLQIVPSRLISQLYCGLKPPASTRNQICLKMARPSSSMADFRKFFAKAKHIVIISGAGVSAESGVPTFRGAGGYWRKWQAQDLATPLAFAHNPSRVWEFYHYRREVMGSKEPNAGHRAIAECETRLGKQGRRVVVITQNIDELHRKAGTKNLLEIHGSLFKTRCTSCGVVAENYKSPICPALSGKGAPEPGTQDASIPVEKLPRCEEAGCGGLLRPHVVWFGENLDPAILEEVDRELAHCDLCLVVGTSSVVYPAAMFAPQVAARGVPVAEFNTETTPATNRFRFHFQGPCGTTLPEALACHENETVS

Vasopressin V1b receptor, sequence (P47901 whole entry): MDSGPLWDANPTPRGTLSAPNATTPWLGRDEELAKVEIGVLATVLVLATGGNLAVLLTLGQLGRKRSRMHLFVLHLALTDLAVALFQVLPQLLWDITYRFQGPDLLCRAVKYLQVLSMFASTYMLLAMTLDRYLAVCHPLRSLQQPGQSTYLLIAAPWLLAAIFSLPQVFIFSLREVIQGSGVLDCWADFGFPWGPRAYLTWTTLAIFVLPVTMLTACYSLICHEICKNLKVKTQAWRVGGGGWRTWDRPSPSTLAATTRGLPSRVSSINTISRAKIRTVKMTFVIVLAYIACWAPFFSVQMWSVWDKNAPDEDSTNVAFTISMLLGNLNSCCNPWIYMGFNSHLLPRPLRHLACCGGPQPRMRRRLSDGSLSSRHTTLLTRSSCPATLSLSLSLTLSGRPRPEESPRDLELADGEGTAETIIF
Vasopressin V2 receptor, sequence (P30518 whole entry): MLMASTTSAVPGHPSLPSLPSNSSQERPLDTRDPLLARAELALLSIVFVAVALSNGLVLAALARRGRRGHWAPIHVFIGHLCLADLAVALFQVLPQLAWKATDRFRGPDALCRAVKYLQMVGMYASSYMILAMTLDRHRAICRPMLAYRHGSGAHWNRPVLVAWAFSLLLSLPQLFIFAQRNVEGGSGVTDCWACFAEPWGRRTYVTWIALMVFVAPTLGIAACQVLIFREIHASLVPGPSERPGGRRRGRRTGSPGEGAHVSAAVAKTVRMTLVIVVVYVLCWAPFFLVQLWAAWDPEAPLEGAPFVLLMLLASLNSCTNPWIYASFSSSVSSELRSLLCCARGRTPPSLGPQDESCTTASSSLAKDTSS

Row | Compound | IC50 [1] | IC50 [2] | IC50 [3] | IC50 [4] | AC50 [5]
1 | CCN(C(=O)N1CCN(c2ccccc2C)CC1)c1ccc(OC)cc1 | 0.062 µM (active) | 6 µM (active) | 8.81 µM (active) | 0.5 µM (active) | –
2 | COc1ccc(OCC(=O)Nc2ccc(C(=O)Nc3ccccc3C(=O)O)cc2)cc1 | – | – | – | – | > 30 µM (inactive)
3 | Cc1ccccc1N1CCN(C(=O)N(CC2CC2)c2ccccc2)CC1 | 0.019 µM (active) | 4.89 µM (active) | 22 µM (inactive) | 4.9 µM (active) | –
4 | CNCCC(Oc1ccccc1OC)c1ccccc1 (stereo not given) [NISOXETINE HYDROCHLORIDE] | – | – | – | – | > 30 µM (inactive)
